Data on 14 compounds can be found in article PMC7823860, “Flavonoid Glycosides with a Triazole Moiety for Marine Antifouling Applications: Synthesis and Biological Activity Evaluation” (Marine Drugs, 2020).

Values joined by “and” are separate entries in the source; they are usually repeats but may differ in a detail not shown here. Identical values can stand only once. Like-named read-outs stand apart in the source and are kept apart here. Bounds are passed on as bounds.

The test system of one series is Navicula sp. Put plainly: Biofilm-forming marine diatom growth inhibition. In kind it is cell-based. To be noted: 10 days. The method, then: The anti-microalgal activity of the most promising compounds was also evaluated against a benthic marine diatom, Navicula sp., purchased from the (Telde, Gran Canaria) Spanish Collection of Algae (BEA). Diatom cells were inoculated in f/2 medium (Sigma) at an initial concentration of 2–4 × 10^6 cells mL^−1 and grown in 96-well flat-bottom microtiter plates for 10 days at 20 °C. Navicula growth inhibition in the presence of each compound at 15 μM was determined in quadruplicate and quantified based on the difference in cell densities among the treatments, and cells were counted using a Neubauer counting chamber. A positive control with cycloheximide (3.55 μM) and a negative control with f/2 medium 0.1% DMSO were included.
(§1) Datasets from anti-settlement, antibacterial and anti-microalgal bioassay, and determination of AChE and Tyr activities, were analysed by one-way analysis of variance (ANOVA) followed by a multi-comparisons Dunnett’s test against negative control (p < 0.05). For the AF bioassays, the half maximum response concentration (EC50) values for each compound, when applicable, were calculated using Probit regression analysis. Significance was considered at p < 0.01, and 95% lower and upper confidence limits (95%LCL; UCL). The software IBM SPSS Statistics 26 (Armonk, New York, USA) was used for statistical analysis.

For series [1], the target named is T1, Electrophorus electric AChE Type V-S (Electrophorus electricus, UniProt O42275).
T1 construct: purchased SIGMA C2888
Kind of series: In vitro acetylcholinesterase (AChE) activity (Ellman). It counts as biochemical. To be noted: 25, 50 and 100 μM; versus negative control, p < 0.05. On the procedure: (§2) The ability of the most promising compounds to inhibit AChE and Tyr was tested to assess their potential mode of action related with neurotransmission disruption or impairment of adhesive metabolism pathways, respectively.
AChE activity was evaluated using Electrophorus electric AChE Type V-S (SIGMA C2888, E.C. 3.1.1.7), according to Ellman et al. (1961) with some modifications. Reaction solution containing 1 M phosphate buffer pH 7.2, 10 mM dithiobisnitrobenzoate (DTNB) (acid dithiobisnitrobenzoate and sodium hydrogen carbonate in phosphate buffer) and 0.075 M […] was added to pure AChE enzyme (0.25 U/mL) and each test compound (final concentration of 25, 50 and 100 μM, 1% DMSO) in quadruplicate. All tests included a positive control with eserine (200 μM, water) and a negative control with 1% DMSO in water. The optical density was measured at 412 nm in a microplate reader (Biotek Synergy HT, Winooski, Vermont, USA) during 5 min at 25 °C.
(In Ellman's method for cholinesterases, released thiocholine reacts with DTNB.)

In series [2] the test system is Artemia salina nauplii. Put plainly: Artemia salina nauplii lethality (ecotoxicity) bioassay. In kind it is in vivo. The note with it: 25 and 50 μM, 48 h of exposure. On the procedure: The brine shrimp (Artemia salina) nauplii lethality test was used to determine the toxicity of promising AF compounds to non-target organisms. Artemia salina eggs were allowed to hatch in seawater for 48 h at 25 °C. Bioassays were performed in 96-wells microplates with 15–20 nauplii per well and 200 μL of the compounds test solution. Compounds were tested at final concentrations of 25 and 50 μM (filtered seawater with 1% DMSO). All tests included K2Cr2O7 (13.6 μM) as positive control and DMSO (1%) as negative control. Bioassays were run in the dark at 25 °C, and the percentage of mortality was determined after 48 h of exposure.

Series [3] can be described thus: Mussel (Mytilus galloprovincialis) larvae anti-settlement bioassay. In kind it is in vivo. The note with it: in vivo, mussel plantigrade larvae, read-out: LC50 (median lethal dose). On the procedure: (§3) Mussel (Mytilus galloprovincialis) plantigrades were collected in juvenile aggregates during low neap tides at Memória beach, Matosinhos, Portugal (41°13′59″ N; 8°43′28″ W). In laboratory, mussel plantigrade larvae (0.5–2 mm) were isolated in a binocular magnifier (Olympus SZX2-ILLT, Tokyo, Japan) to a petri dish with filtered seawater, and those with functional foot and competent exploring behaviour were selected for the bioassays. The flavonoids were screened at 50 µM in 24-well microplates with 4 well replicates per condition and 5 larvae per well, for 15 h, in the darkness at 18 ± 1 °C, following Almeida et al. (2015). Test solutions were obtained by dilution of the compounds stock solutions (50 mM) in DMSO and prepared with filtered seawater. All bioassays included a negative control with DMSO and a positive control with CuSO4, a potent AF agent. After the exposure period, the anti-settlement activity was determined by the presence/absence of attached byssal threads produced by each individual larvae.
(§4) All compounds that caused more than 60% of settlement inhibition (≤40% of settlement) in the screening bioassay were considered active and selected for the determination of the semi-maximum response concentration that inhibited 50% of larval settlement (EC50), at compounds concentrations of 3.12, 6.25, 12.5, 25, 50, 100, 200 μM.
as §1

Series [4] deals with Mytilus galloprovincialis plantigrade larvae. The description is as above. It counts as in vivo. The note with it: 15 h, 15 h exposure, read-out: EC50 (minimum concentration that inhibited 50% of larval settlement). On the procedure:
as §3, §4, §1

Series [5] relates to Roseobacter litoralis CECT 5395. Put plainly: Biofilm-forming marine bacteria growth inhibition. In kind it is cell-based. The note with it: 15 µM, 24 h, Dunnett test p < 0.05. The method, then: For anti-bacterial screening, five strains of marine biofilm-forming bacteria from the Spanish Type Culture Collection (CECT): Cobetia marina CECT 4278, Vibrio harveyi CECT 525, Halomonas aquamarina CECT 5000, Pseudoalteromonas atlantica CECT 570, and Roseobacter litoralis CECT 5395 were used. Bacteria were inoculated and incubated for 24 h at 26 °C in marine broth (Difco) at an initial density of 0.1 (OD600) in 96 well flat-bottom microtiter plates and exposed to the test compounds at 15 μM. Test solutions were obtained by dilution of the compounds stock solutions (50 mM) in DMSO. Bacterial growth inhibition in the presence of the compounds was determined in quadruplicate at 600 nm using a microplate reader (Biotek Synergy HT, Vermont, USA). Negative and positive controls used were a solution of marine broth with DMSO, and a solution of marine broth with penicillin–streptomycin–neomycin, respectively. […]
Datasets from anti-settlement, antibacterial and anti-microalgal bioassay, and determination of AChE and Tyr activities, were analysed by one-way analysis of variance (ANOVA) followed by a multi-comparisons Dunnett’s test against negative control (p < 0.05). For the AF bioassays, the half maximum response concentration (EC50) values for each compound, when applicable, were calculated using Probit regression analysis. […]

In a further series the test system is Agaricus bisporus Tyr. Kind of series: In vitro tyrosinase (Tyr) inhibition assay (L-Dopa to dopachrome). It counts as biochemical. The method, then: as §2
Tyr inhibition assay was performed using Agaricus bisporus Tyr (EC1.14.18.1) according to Adhikari et al. (2008) with some modifications. The enzymatic reaction follows the catalytic conversion of L-Dopa to dopaquinone and the formation of dopachrome by measuring the absorbance at 475 nm. Briefly, Tyr (25 U/mL) was added to 50 mM phosphate buffer pH 6.5 and the tested compounds at 25, 50 and 100 μM (final concentrations, 1% DMSO). The enzymatic activity was triggered by the addition of L-dopa (25 mM). Kojic acid (1.4 mM, water) was included as positive control and 1% DMSO in water as negative control.

For series [6], the system named is Artemia salina nauplii. More on the design: method as in PMID 29936172. The note with it: same concentrations (25 and 50 μM) and conditions; cited from earlier work.

T1 sequence (O42275 24-633): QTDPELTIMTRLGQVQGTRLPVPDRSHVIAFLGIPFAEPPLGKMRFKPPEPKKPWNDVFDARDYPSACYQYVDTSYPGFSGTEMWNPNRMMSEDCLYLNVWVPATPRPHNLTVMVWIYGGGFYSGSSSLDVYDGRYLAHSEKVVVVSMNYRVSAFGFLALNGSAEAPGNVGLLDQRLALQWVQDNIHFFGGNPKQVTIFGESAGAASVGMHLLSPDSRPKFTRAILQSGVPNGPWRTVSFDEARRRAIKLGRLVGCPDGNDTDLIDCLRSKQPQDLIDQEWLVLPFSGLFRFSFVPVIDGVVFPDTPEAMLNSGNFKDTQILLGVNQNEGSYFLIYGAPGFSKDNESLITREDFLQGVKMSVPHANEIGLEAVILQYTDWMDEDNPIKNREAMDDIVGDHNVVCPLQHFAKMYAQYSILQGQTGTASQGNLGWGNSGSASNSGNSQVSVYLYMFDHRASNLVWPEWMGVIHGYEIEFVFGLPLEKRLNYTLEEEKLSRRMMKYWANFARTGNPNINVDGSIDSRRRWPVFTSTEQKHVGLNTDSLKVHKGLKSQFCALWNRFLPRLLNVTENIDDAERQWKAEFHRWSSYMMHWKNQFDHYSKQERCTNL

For the compound `COc1cc(/C=C/C(=O)c2ccc(OCc3cn([C@@H]4O[C@H](COC(C)=O)[C@@H](OC(C)=O)[C@H](OC(C)=O)[C@H]4OC(C)=O)nn3)cc2O)cc(OC)c1OC` [7b, (2R,3R,4S,5R,6R)-2-(acetoxymethyl)-6-(4-((3-hydroxy-4-((E)-3-(3,4,5-trimethoxyphenyl)acryloyl)phenoxy)methyl)-1H-1,2,3-triazol-1-yl)tetrahydro-2H-pyran-3,4,5-triyl triacetate], the “diatom growth inhibition screening” value in the series on Navicula sp. (15 μM, Dunnett test p < 0.05) was “significant inhibitory activity”. In addition, the EC50 in the series on Navicula sp. (240 h) was 41.8 µM and 30.9 µg/mL; in series [4] (95% CI in cell) it was 3.28 µM. Moreover, the AChE activity result in series [1] was “significantly induced”. The “mortality of Artemia salina nauplii” value in the series on Artemia salina nauplii [2] is reported as “less than 10%”. The LC50 (as a rule, the concentration lethal to half of the exposed cells or organisms) at 15 h in series [3] was over 200 µM.
Consider `COc1ccc(/C=C/C(=O)c2ccc(O)cc2O)cc1OC` [11a], for which the “mortality of Artemia salina nauplii” value with Artemia salina nauplii [2] is reported as “less than 10%”. Also, the 50% lethal concentration (LC50) at 15 h in series [3] is over 200 µM. Further, the EC50 in [4] (95% CI in cell) was found to be 18.1 µM.
As for `COc1ccc(/C=C/C(=O)c2ccc(OCc3cn(CCO[C@@H]4O[C@H](COC(C)=O)[C@@H](OC(C)=O)[C@H](OC(C)=O)[C@H]4OC(C)=O)nn3)cc2O)cc1OC` [8a, (2R,3R,4S,5R,6R)-2-(acetoxymethyl)-6-(2-(4-((4-((E)-3-(3,4-dimethoxyphenyl)acryloyl)-3-hydroxyphenoxy)methyl)-1H-1,2,3-triazol-1-yl)ethoxy)tetrahydro-2H-pyran-3,4,5-triyl triacetate], the LC50 at 15 h in series [3] was over 200 µM. Besides, the EC50 in series [4] (95% CI in cell) was found to be 35.8 µM; in series [4], 27.1 µg/mL.
For `C#CCOc1ccc(C(=O)/C=C/c2ccc(OC)c(OC)c2)c(O)c1` [6a], the “bacterial growth inhibition screening” value in series [5] is “significant inhibitory activity”. Besides, the LC50 at 15 h in [3] is over 200 µM. Moreover, the results for the EC50 in series [4] (95% CI in cell) and in series [4] were 84.5 µM and 28.6 µg/mL, respectively.
Take `COc1cc(/C=C/C(=O)c2ccc(O)cc2O)cc(OC)c1OC` [11b]: the AChE activity result in series [1] is reported as “significantly induced”. Besides, in the series on Artemia salina nauplii [2], the “mortality of Artemia salina nauplii” value is on record as “less than 10%”. Also, the LC50 at 15 h in series [3] was over 200 µM. Also, in series [4] (95% CI in cell), the EC50 is 9.64 µM.
As to `COc1cc(-c2cc(=O)c3c(O)cc(O)cc3o2)cc(OC)c1OC` [1b], the “mortality of Artemia salina nauplii” value in the series on Artemia salina nauplii [2] is “less than 10%”. Besides, the “inhibition of Tyr” value in the series on Agaricus bisporus Tyr (100 µM) was 23.5%. The Tyr activity result in the series with Agaricus bisporus Tyr (all the concentrations tested (25, 50 and 100 μM), versus negative control) is on record as “significantly decrease Tyr activity”. In addition, the median lethal concentration (LC50) at 15 h in [3] was over 200 µM. For the same compound, the EC50 in series [4] (95% CI in cell) was 8.34 µM.
Take `COc1cc(-c2cc(=O)c3c(O)cc(OCc4cn([C@@H]5O[C@H](COC(C)=O)[C@@H](OC(C)=O)[C@H](OC(C)=O)[C@H]5OC(C)=O)nn4)cc3o2)cc(OC)c1OC`: the melting point (in general, the temperature, or range, at which the solid turns liquid) was in the range of 169 to 171 °C.
For the compound `COc1ccc(-c2cc(=O)c3c(O)cc(OCc4cn(CCO[C@@H]5O[C@H](COC(C)=O)[C@@H](OC(C)=O)[C@H](OC(C)=O)[C@H]5OC(C)=O)nn4)cc3o2)cc1OC` [4a, (2R,3R,4S,5R,6R)-2-(acetoxymethyl)-6-(2-(4-(((2-(3,4-dimethoxyphenyl)-5-hydroxy-4-oxo-4H-chromen-7-yl)oxy)methyl)-1H-1,2,3-triazol-1-yl)ethoxy)tetrahydro-2H-pyran-3,4,5-triyl triacetate], in [3], the median lethal concentration (LC50) at 15 h is over 200 µM. The values for the EC50 in series [4] (95% CI in cell) and in series [4] were 42.6 µM and 32.8 µg/mL, respectively.
For `COc1cc(-c2cc(=O)c3c(O)cc(OCc4cn(CCO[C@@H]5O[C@H](COC(C)=O)[C@@H](OC(C)=O)[C@H](OC(C)=O)[C@H]5OC(C)=O)nn4)cc3o2)cc(OC)c1OC` [4b, (2R,3R,4S,5R,6R)-2-(acetoxymethyl)-6-(2-(4-(((5-hydroxy-4-oxo-2-(3,4,5-trimethoxyphenyl)-4H-chromen-7-yl)oxy)methyl)-1H-1,2,3-triazol-1-yl)ethoxy)tetrahydro-2H-pyran-3,4,5-triyl triacetate], in series [3], the LC50 at 15 h was over 200 µM. For the same compound, the EC50 is 48.2 µM in series [4] (95% CI in cell) and 38.6 µg/mL in series [4].
`COc1ccc(-c2cc(=O)c3c(O)cc(OCc4cn([C@@H]5O[C@H](COC(C)=O)[C@@H](OC(C)=O)[C@H](OC(C)=O)[C@H]5OC(C)=O)nn4)cc3o2)cc1OC` showed a melting point of 143 to 145 °C.
On the same count and under the same terms, under `COCOc1ccc(C(=O)/C=C/c2cc(OC)c(OC)c(OC)c2)c(O)c1` stands 132 to 134 °C.
For the compound `C#CCOc1ccc(C(=O)/C=C/c2cc(OC)c(OC)c(OC)c2)c(O)c1` [6b], the “bacterial growth inhibition screening” value in series [5] is “significant inhibitory activity”. Besides, in series [3], the LC50 at 15 h is over 200 µM. The EC50 is 85.6 µM in series [4] (95% CI in cell) and 31.5 µg/mL in series [4].
`COc1cc(/C=C/C(=O)c2ccc(OCc3cn(CCO[C@H]4O[C@H](COC(C)=O)[C@@H](OC(C)=O)[C@H](OC(C)=O)[C@@H]4OC(C)=O)nn3)cc2O)cc(OC)c1OC` [8b, (2R,3R,4S,5S,6S)-2-(acetoxymethyl)-6-(2-(4-((3-hydroxy-4-((E)-3-(3,4,5-trimethoxyphenyl)acryloyl)phenoxy)methyl)-1H-1,2,3-triazol-1-yl)ethoxy)tetrahydro-2H-pyran-3,4,5-triyl triacetate]: in [3], the LC50 at 15 h is over 200 µM. Further, the values for the EC50 in series [4] (95% CI in cell) and in [4] were 53.9 µM and 42.4 µg/mL, respectively.
Turning to `N#Cc1c(-c2ccc(Cl)cc2)[nH]c(C(F)(F)F)c1Br` [ECONEA], in the series on Artemia salina nauplii [6], the “lethality to Artemia salina” value is reported as 100%.
